Reference: ChEMBL document CHEMBL5126613, “Novel CA(1-7)M(2-9) Analogs: Synthesis, Characterization, and Antibacterial Evaluation” (ACS Med Chem Lett, 2022)
Converted amounts (≈) assume the structure as drawn. Values belong to the molecule of their own block, whether it stands above or below them.

Tests used:
[1] = (§1) Selectivity index, ratio of HC50 for hemolytic activity in sheep RBC assessed as 50% hemolysis incubated for 30 mins by microplate reader method to MIC for antibacterial activity against Bacillus subtilis ATCC 6051 assessed as reduction in bacterial growth measured for 18 to 20 hrs by microbroth dilution method; format: toxicity; details: sheep red blood cells (erythrocytes), read-out: Selectivity Index
Bacillus subtilis = assay: Antibacterial activity against Bacillus subtilis ATCC 6051 assessed as reduction in bacterial growth measured for 18 to 20 hrs by microbroth dilution method; format: functional; details: time 18-20 hrs
[2] = as §1, with “Pseudomonas aeruginosa” for “Bacillus subtilis”, “27853” for “6051”; format: toxicity; details: sheep red blood cells (erythrocytes), read-out: Selectivity Index
Pseudomonas aeruginosa = assay: Antibacterial activity against Pseudomonas aeruginosa ATCC 27853 assessed as reduction in bacterial growth measured for 18 to 20 hrs by microbroth dilution method; format: functional; details: time 18-20 hrs
Staphylococcus aureus = assay: Antibacterial activity against Staphylococcus aureus ATCC 29213 assessed as reduction in bacterial growth measured for 18 to 20 hrs by microbroth dilution method; format: functional; details: time 18-20 hrs
Escherichia coli = assay: Antibacterial activity against Escherichia coli ATCC 25922 assessed as reduction in bacterial growth measured for 18 to 20 hrs by microbroth dilution method; format: functional; details: time 18-20 hrs
[3] = as §1, with “Staphylococcus aureus” for “Bacillus subtilis”, “29213” for “6051”; format: toxicity; details: sheep red blood cells (erythrocytes), read-out: Selectivity Index
[4] = Hemolytic activity in sheep RBC assessed as 50% hemolysis incubated for 30 mins by microplate reader method; format: toxicity, cell-based, Ovis aries, Erythrocyte; details: sheep red blood cells (erythrocytes)
[5] = Hemolytic activity in sheep RBC assessed as hemolysis incubated for 30 mins by microplate reader method; format: toxicity, cell-based, Ovis aries, Erythrocyte; details: sheep red blood cells (erythrocytes), read-out: Activity
[6] = as §1, with “Escherichia coli” for “Bacillus subtilis”, “25922” for “6051”; format: toxicity; details: sheep red blood cells (erythrocytes), read-out: Selectivity Index
Trypsin [7] = target: T1, Trypsin (Homo sapiens, UniProt P07477+P07478+P35030); assay: Stability of compound assessed as trypsin (unknown origin) mediated compound degradation by measuring H-WO3LFO6-OH level measured at 270 mins by LCMS analysis; format: protein assay
Trypsin [8] = target: T1, Trypsin; assay: Stability of compound assessed as trypsin (unknown origin) mediated compound degradation by measuring H-O1WO3LFO6O7IGAVLO13-OH level measured at 120 mins by LCMS analysis; format: protein assay
Trypsin [9] = target: T1, Trypsin; assay: Stability of compound assessed as trypsin (unknown origin) mediated compound degradation by measuring H-O1WO3LFO6O7IGAVLO13VL-NH2 level measured at 270 mins by LCMS analysis; format: protein assay
Trypsin [10] = target: T1, Trypsin; assay: Stability of compound assessed as trypsin (unknown origin) mediated compound degradation by measuring H-O1WO3LFO6O7-OH level measured at 120 mins by LCMS analysis; format: protein assay
Trypsin [11] = target: T1, Trypsin; assay: Stability of compound assessed as trypsin (unknown origin) mediated compound degradation by measuring H-O1WO3LFO6O7IGAVLO13VL-NH2 level measured at 60 mins by LCMS analysis; format: protein assay
Trypsin [12] = target: T1, Trypsin; assay: Stability of compound assessed as trypsin (unknown origin) mediated compound degradation by measuring H-O1WO3LFO6O7IGAVLO13VL-NH2 level measured at 120 mins by LCMS analysis; format: protein assay
Trypsin [13] = target: T1, Trypsin; assay: Stability of compound assessed as trypsin (unknown origin) mediated compound degradation by measuring H-O1WO3LFO6-OH level measured at 270 mins by LCMS analysis; format: protein assay
Trypsin [14] = target: T1, Trypsin; assay: Stability of compound assessed as trypsin (unknown origin) mediated compound degradation by measuring H-WO3LFO6-OH level measured at 120 mins by LCMS analysis; format: protein assay
Trypsin [15] = target: T1, Trypsin; assay: Stability of compound assessed as trypsin (unknown origin) mediated compound degradation by measuring H-O7IGAVLO13VL-NH2 level measured at 120 mins by LCMS analysis; format: protein assay
Trypsin [16] = target: T1, Trypsin; assay: Stability of compound assessed as trypsin (unknown origin) mediated compound degradation by measuring H-O1WO3LFO6-OH level measured at 15 mins by LCMS analysis; format: protein assay
Trypsin [17] = target: T1, Trypsin; assay: Stability of compound assessed as trypsin (unknown origin) mediated compound degradation by measuring H-O1WO3LFO6O7-OH level measured at 270 mins by LCMS analysis; format: protein assay
Trypsin [18] = target: T1, Trypsin; assay: Stability of compound assessed as trypsin (unknown origin) mediated compound degradation by measuring H-O1WO3LFO6O7-OH level measured at 60 mins by LCMS analysis; format: protein assay
Trypsin [19] = target: T1, Trypsin; assay: Stability of compound assessed as trypsin (unknown origin) mediated compound degradation by measuring H-O7IGAVLO13VL-NH2 level measured at 270 mins by LCMS analysis; format: protein assay
Trypsin [20] = target: T1, Trypsin; assay: Stability of compound assessed as trypsin (unknown origin) mediated compound degradation by measuring H-O1WO3LFO6O7IGAVLO13VL-NH2 level measured at 15 mins by LCMS analysis; format: protein assay
Trypsin [21] = target: T1, Trypsin; assay: Stability of compound assessed as trypsin (unknown origin) mediated compound degradation by measuring H-O1WO3LFO6-OH level measured at 120 mins by LCMS analysis; format: protein assay
Trypsin [22] = target: T1, Trypsin; assay: Stability of compound assessed as trypsin (unknown origin) mediated compound degradation by measuring H-O1WO3LFO6O7IGAVLO13-OH level measured at 60 mins by LCMS analysis; format: protein assay
Trypsin [23] = target: T1, Trypsin; assay: Stability of compound assessed as trypsin (unknown origin) mediated compound degradation by measuring H-O1WO3LFO6-OH level measured at 60 mins by LCMS analysis; format: protein assay
Trypsin [24] = target: T1, Trypsin; assay: Stability of compound assessed as trypsin (unknown origin) mediated compound degradation by measuring H-WO3LFO6-OH level measured at 15 mins by LCMS analysis; format: protein assay
Trypsin [25] = target: T1, Trypsin; assay: Stability of compound assessed as trypsin (unknown origin) mediated compound degradation by measuring H-O1WO3LFO6O7IGAVLO13-OH level measured at 270 mins by LCMS analysis; format: protein assay
Trypsin [26] = target: T1, Trypsin; assay: Stability of compound assessed as trypsin (unknown origin) mediated compound degradation by measuring H-O1WO3LFO6O7-OH level measured at 15 mins by LCMS analysis; format: protein assay
Trypsin [27] = target: T1, Trypsin; assay: Stability of compound assessed as trypsin (unknown origin) mediated compound degradation by measuring H-O7IGAVLO13VL-NH2 level measured at 60 mins by LCMS analysis; format: protein assay
Trypsin [28] = target: T1, Trypsin; assay: Stability of compound assessed as trypsin (unknown origin) mediated compound degradation by measuring H-WO3LFO6-OH level measured at 60 mins by LCMS analysis; format: protein assay

Molecule: CC[C@H](C)[C@H](NC(=O)[C@H](CCCN)NC(=O)[C@H](CCCN)NC(=O)[C@H](Cc1ccccc1)NC(=O)[C@H](CC(C)C)NC(=O)[C@H](CCCN)NC(=O)[C@H](Cc1c[nH]c2ccccc12)NC(=O)[C@@H](N)CCCN)C(=O)NCC(=O)N[C@@H](C)C(=O)N[C@H](C(=O)N[C@@H](CC(C)C)C(=O)N[C@@H](CCCN)C(=O)N[C@H](C(=O)N[C@@H](CC(C)C)C(N)=O)C(C)C)C(C)C
MIC (Bacillus subtilis): 32 µg/mL (≈ 18.8 µM)
MIC (Pseudomonas aeruginosa): 8 µg/mL (≈ 4.71 µM)
MIC (Staphylococcus aureus): 8 µg/mL (≈ 4.71 µM)
MIC (Escherichia coli): 4 µg/mL (≈ 2.35 µM)

Molecule: CC[C@H](C)[C@H](NC(=O)[C@H](CCCN)NC(=O)[C@H](CCCN)NC(=O)[C@H](Cc1ccccc1)NC(=O)[C@H](CC(C)C)NC(=O)[C@H](CCCN)NC(=O)[C@H](Cc1c[nH]c2ccccc12)NC(=O)[C@@H](N)CCCN)C(=O)NCC(=O)N[C@H](C)C(=O)N[C@H](C(=O)N[C@@H](CC(C)C)C(=O)N[C@@H](CCCN)C(=O)N[C@H](C(=O)N[C@@H](CC(C)C)C(N)=O)C(C)C)C(C)C
Drug degradation (Trypsin [7]): 12.1%
Drug degradation (Trypsin [8]): 1%
Drug degradation (Trypsin [9]): 58.3%
Drug degradation (Trypsin [10]): 4%
Drug degradation (Trypsin [11]): 89.4%
Drug degradation (Trypsin [12]): 79.4%
Drug degradation (Trypsin [13]): 17.3%
Drug degradation (Trypsin [14]): 5.6%
Drug degradation (Trypsin [15]): 1.6%
Drug degradation (Trypsin [16]): 0.9%
Drug degradation (Trypsin [17]): 7.6%
Drug degradation (Trypsin [18]): 2.1%
Drug degradation (Trypsin [19]): 2.5%
Drug degradation (Trypsin [20]): 98.1%
Drug degradation (Trypsin [21]): 8.4%
Drug degradation (Trypsin [22]): 0.5%
Drug degradation (Trypsin [23]): 4.3%
Drug degradation (Trypsin [24]): 0.6%
Drug degradation (Trypsin [25]): 2.2%
Drug degradation (Trypsin [26]): 0.4%
Drug degradation (Trypsin [27]): 0.9%
Drug degradation (Trypsin [28]): 2.8%

Further lines, with some results ahead:

MIC (Bacillus subtilis): 32 µg/mL
MIC (Pseudomonas aeruginosa): 8 µg/mL
MIC (Staphylococcus aureus): 4 µg/mL
MIC (Escherichia coli): 4 µg/mL
Molecule: H-RWKLFKKIGAVLKVL-NH2
selectivity ratio at 30 min [1]: 14
selectivity ratio at 30 min [2]: 56
selectivity ratio at 30 min [3]: 113
HC50 at 0.5 h [4]: 450 µg/mL
hemolysis at 0.5 h [5]: 10%
selectivity ratio at 30 min [6]: 113

MIC (Bacillus subtilis): 32 µg/mL
MIC (Pseudomonas aeruginosa): 8 µg/mL
MIC (Staphylococcus aureus): 4 µg/mL
MIC (Escherichia coli): 4 µg/mL
Molecule: H-KWRLFKKIGAVLKVL-NH2
selectivity ratio at 30 min [1]: 23
selectivity ratio at 30 min [2]: 94
selectivity ratio at 30 min [3]: 188
HC50 at 0.5 h [4]: 750 µg/mL
hemolysis at 0.5 h [5]: 10%
selectivity ratio at 30 min [6]: 188

MIC (Bacillus subtilis): 64 µg/mL
MIC (Pseudomonas aeruginosa): 8 µg/mL
MIC (Staphylococcus aureus): 4 µg/mL
MIC (Escherichia coli): 4 µg/mL
Molecule: H-KWKLFRKIGAVLKVL-NH2
selectivity ratio at 30 min [1]: 15
selectivity ratio at 30 min [2]: 117
selectivity ratio at 30 min [3]: 234
HC50 at 0.5 h [4]: 935 µg/mL
hemolysis at 0.5 h [5]: 10%
selectivity ratio at 30 min [6]: 234
